Data: patent publication US9340577B2, “HLA binding motifs and peptides and their uses” (priority 1992, dated 2016)

What was measured:
DRB1*0301 = DRB1*0301 (Homo sapiens, UniProt P01903+P01911, A100K/A102G/A103R/A169T/F55Y/I96L/K41T/L162R/M171V/P40S/Q125H/Q178H/Q39Y/R42S/S66N/T106N/T262R/W38E/Y61H); experiment: biochemical; format: binding
DRB1*1201 = DRB1*1201 (Homo sapiens, UniProt P01903+P01911, A100R/A169T/D57E/D86V/F55L/H45Y/K41T/L162R/M171V/P40S/Q125H/Q178H/Q39Y/Q99D/R42G/S66L/T262R/V114A/V67L/W38E/Y59H/Y61H/Y89S); experiment: biochemical; format: binding

Chain of DRB1*0301 (P01903 26-254 limits assumed, other chains not shown): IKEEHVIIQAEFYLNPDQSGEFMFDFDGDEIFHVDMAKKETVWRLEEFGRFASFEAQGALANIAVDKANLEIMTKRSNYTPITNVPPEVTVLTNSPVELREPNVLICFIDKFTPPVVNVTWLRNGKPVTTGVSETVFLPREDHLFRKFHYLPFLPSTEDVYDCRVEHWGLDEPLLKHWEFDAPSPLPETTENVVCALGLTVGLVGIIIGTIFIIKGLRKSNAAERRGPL

Structure (SMILES) | IC50 (DRB1*0301) | IC50 (DRB1*1201)
CC[C@H](C)[C@H](NC(=O)[C@H](Cc1ccccc1)NC(=O)[C@H](Cc1c[nH]c2ccccc12)NC(=O)CNC(=O)[C@H](Cc1ccccc1)NC(=O)[C@H](CC(C)C)NC(=O)[C@H](Cc1ccccc1)NC(=O)CNC(=O)[C@@H](N)CC(C)C)C(=O)N[C@@H](CCCCN)C(=O)N[C@@H](CO)C(=O)N[C@@H](CO)C(=O)N[C@@H](CC(N)=O)C(=O)N[C@@H](CCC(=O)O)C(=O)N[C@@H](C)C(=O)O [Peptide 68.0084] | > 20000 nM | 475 nM
CC[C@H](C)[C@H](NC(=O)[C@H](CCCNC(=N)N)NC(=O)[C@@H](N)[C@@H](C)O)C(=O)N[C@@H](Cc1ccc(O)cc1)C(=O)N[C@@H](CC(N)=O)C(=O)N[C@H](C(=O)N[C@H](C(=O)NCC(=O)N[C@H](C(=O)N[C@@H](CC(C)C)C(=O)N[C@@H](CCCNC(=N)N)C(=O)NCC(=O)N[C@@H](C)C(=O)N[C@H](C(=O)N[C@@H](CCC(=O)O)C(=O)O)C(C)C)[C@@H](C)O)[C@@H](C)CC)C(C)C [Peptide 68.0107] | > 20000 nM | 502 nM
CSCC[C@H](NC(=O)[C@@H]1CCCN1C(=O)[C@H](CC(=O)O)NC(=O)[C@@H](N)Cc1ccc(O)cc1)C(=O)N[C@@H](Cc1ccccc1)C(=O)N[C@@H](CCCCN)C(=O)N[C@@H](Cc1ccc(O)cc1)C(=O)N[C@@H](Cc1c[nH]cn1)C(=O)N[C@@H](CC(C)C)C(=O)N[C@H](C(=O)N[C@H](C(=O)N[C@@H](C)C(=O)N[C@@H](CCC(N)=O)C(=O)N[C@H](C(=O)N[C@@H](CCCNC(=N)N)C(=O)O)C(C)C)C(C)C)[C@@H](C)O [Peptide 68.0117] | > 20000 nM | 240 nM
CSCC[C@H](NC(=O)[C@@H]1CCCN1C(=O)[C@@H](N)CC(=O)O)C(=O)N[C@@H](Cc1ccccc1)C(=O)N[C@@H](CCCCN)C(=O)N[C@@H](Cc1ccc(O)cc1)C(=O)N[C@@H](Cc1c[nH]cn1)C(=O)N[C@@H](CC(C)C)C(=O)N[C@H](C(=O)N[C@H](C(=O)N[C@@H](C)C(=O)N[C@@H](CCC(N)=O)C(=O)N[C@H](C(=O)N[C@@H](CCCNC(=N)N)C(=O)NCC(=O)O)C(C)C)C(C)C)[C@@H](C)O [Peptide 68.0118] | > 20000 nM | 470 nM
CSCC[C@H](NC(=O)CNC(=O)CNC(=O)[C@H](CCCNC(=N)N)NC(=O)[C@@H](NC(=O)[C@H](CCC(N)=O)NC(=O)[C@H](C)NC(=O)[C@@H](NC(=O)[C@@H](NC(=O)[C@H](CC(C)C)NC(=O)[C@H](Cc1c[nH]cn1)NC(=O)[C@H](Cc1ccc(O)cc1)NC(=O)[C@H](CCCCN)NC(=O)[C@H](Cc1ccccc1)NC(=O)[C@@H](N)CCSC)[C@@H](C)O)C(C)C)C(C)C)C(=O)O [Peptide 68.0119] | > 20000 nM | 482 nM
CC[C@H](C)[C@H](NC(=O)[C@H](CCC(N)=O)NC(=O)[C@@H](N)CCCNC(=N)N)C(=O)N[C@@H](Cc1ccc(O)cc1)C(=O)N[C@H](C(=O)N[C@@H](C)C(=O)N[C@@H](C)C(=O)N[C@@H](Cc1ccccc1)C(=O)N[C@H](C(=O)N[C@H](C(=O)N[C@@H](CCC(N)=O)C(=O)N[C@@H](C)C(=O)N[C@@H](C)C(=O)N[C@@H](C)C(=O)N[C@@H](CCC(=O)O)C(=O)O)C(C)C)[C@@H](C)O)C(C)C [Peptide 68.0134] | > 20000 nM | 609 nM
CC[C@H](C)[C@H](NC(=O)[C@@H](N)CCC(N)=O)C(=O)N[C@@H](Cc1ccc(O)cc1)C(=O)N[C@H](C(=O)N[C@@H](C)C(=O)N[C@@H](C)C(=O)N[C@@H](Cc1ccccc1)C(=O)N[C@H](C(=O)N[C@H](C(=O)N[C@@H](CCC(N)=O)C(=O)N[C@@H](C)C(=O)N[C@@H](C)C(=O)N[C@@H](C)C(=O)N[C@@H](CCC(=O)O)C(=O)N[C@H](C(=O)O)[C@@H](C)O)C(C)C)[C@@H](C)O)C(C)C [Peptide 68.0135] | > 20000 nM | 934 nM
CC(C)C[C@H](NC(=O)[C@@H](NC(=O)[C@H](CCC(=O)O)NC(=O)[C@H](C)NC(=O)[C@H](C)NC(=O)[C@H](C)NC(=O)[C@H](CCC(N)=O)NC(=O)[C@@H](NC(=O)[C@@H](NC(=O)[C@H](Cc1ccccc1)NC(=O)[C@H](C)NC(=O)[C@H](C)NC(=O)[C@@H](N)C(C)C)[C@@H](C)O)C(C)C)[C@@H](C)O)C(=O)N[C@@H](CO)C(=O)N[C@@H](CCC(=O)O)C(=O)O [Peptide 68.0136] | > 20000 nM | 4460 nM
